Reference: US20070010671A1, “Novel quinazoline derivatives and methods of treatment related to the use thereof” (priority 2003, published 2007)
pIC50: −log10 of the molar value.

Each compound was assayed against MCH receptor (Homo sapiens, UniProt Q99705) (assay: High throughput functional screening FLIPR/FDSS6000: inhibition of MCH-evoked intracellular Ca2+ changes). Settings: class by percent of control at 10^−7 M or by IC50; read-out: class.
Assay type: cell-based
Method in brief: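 In a kinetic calcium-flux format, compounds were tested at various concentrations against 50 nM MCH. Fluo4-loaded cells expressing a constitutively active, non-endogenous receptor were imaged at 488/530 nm for 290 s after agonist addition.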

| SMILES | pIC50 |
| --- | --- |
| CN(C)c1nc(N[C@H]2CC[C@@H](NC(=O)c3ccnc(Oc4cccc(Cl)c4)c3)CC2)nc2ccccc12 [Example 1073, 2-(3-chlorophenoxy)-N-(cis-4-{[4-(dimethylamino)quinazolin-2-yl]amino}cyclohexyl)isonicotinamide] | 6.70 to 7.30 |
| CN(C)c1nc(N[C@H]2CC[C@@H](NC(=O)c3ccnc(Oc4ccc(Cl)cc4)c3)CC2)nc2ccccc12 [Example 1074, 2-(4-chlorophenoxy)-N-(cis-4-{[4-(dimethylamino)quinazolin-2-yl]amino}cyclohexyl)isonicotinamide] | > 7.30 |
| CN(C)c1nc(N[C@H]2CC[C@@H](NC(=O)COc3ccc(Cl)c(Cl)c3)CC2)nc2ccccc12 [Example 1075, 2-(3,4-dichlorophenoxy)-N-(cis-4-{[4-(dimethylamino)quinazolin-2-yl]amino}cyclohexyl)acetamide] | > 7.30 |
| Cc1ccc(OCC(=O)N[C@H]2CC[C@@H](Nc3nc(N(C)C)c4ccccc4n3)CC2)cc1C [Example 1076, N-(cis-4-{[4-(dimethylamino)quinazolin-2-yl]amino}cyclohexyl)-2-(3,4-dimethylphenoxy)acetamide] | < 6.70 |
| CN(C)c1nc(N[C@H]2CC[C@@H](NC(=O)COc3cc(Cl)c(Cl)cc3Cl)CC2)nc2ccccc12 [Example 1077, N-(cis-4-{[4-(dimethylamino)quinazolin-2-yl]amino}cyclohexyl)-2-(2,4,5-trichlorophenoxy)acetamide] | 6.70 to 7.30 |
| CN(C)c1nc(N[C@H]2CC[C@@H](NC(=O)COc3ccc(F)cc3)CC2)nc2ccccc12 [Example 1078, N-(cis-4-{[4-(dimethylamino)quinazolin-2-yl]amino}cyclohexyl)-2-(4-fluorophenoxy)acetamide] | > 7.30 |
| Cc1cccc(OCC(=O)N[C@H]2CC[C@@H](Nc3nc(N(C)C)c4ccccc4n3)CC2)c1 [Example 1079, N-(cis-4-{[4-(dimethylamino)quinazolin-2-yl]amino}cyclohexyl)-2-(3-methylphenoxy)acetamide] | > 7.30 |
| COc1ccc(OCC(=O)N[C@H]2CC[C@@H](Nc3nc(N(C)C)c4ccccc4n3)CC2)cc1 [Example 1080, N-(cis-4-{[4-(dimethylamino)quinazolin-2-yl]amino}cyclohexyl)-2-(4-methoxyphenoxy)acetamide] | > 7.30 |
| COc1cccc(OCC(=O)N[C@H]2CC[C@@H](Nc3nc(N(C)C)c4ccccc4n3)CC2)c1 [Example 1081, N-(cis-4-{[4-(dimethylamino)quinazolin-2-yl]amino}cyclohexyl)-2-(3-methoxyphenoxy)acetamide] | > 7.30 |
| COc1ccccc1OCC(=O)N[C@H]1CC[C@@H](Nc2nc(N(C)C)c3ccccc3n2)CC1 [Example 1082, N-(cis-4-{[4-(dimethylamino)quinazolin-2-yl]amino}cyclohexyl)-2-(2-methoxyphenoxy)acetamide] | 6.70 to 7.30 |
| CN(C)c1nc(N[C@H]2CC[C@@H](NC(=O)COc3ccc(Cl)cc3Cl)CC2)nc2ccccc12 [Example 1083, 2-(2,4-dichlorophenoxy)-N-(cis-4-{[4-(dimethylamino)quinazolin-2-yl]amino}cyclohexyl)acetamide] | 6.70 to 7.30 |
| CN(C)c1nc(N[C@H]2CC[C@@H](NC(=O)c3ccc(OCc4ccccc4)cc3)CC2)nc2ccccc12 [Example 1084, 4-(benzyloxy)-N-(cis-4-{[4-(dimethylamino)quinazolin-2-yl]amino}cyclohexyl)benzamide] | < 6.70 |
| CN(C)c1nc(N[C@H]2CC[C@@H](NC(=O)CNc3ccccc3)CC2)nc2ccccc12 [Example 1085, N-(cis-4-{[4-(dimethylamino)quinazolin-2-yl]amino}cyclohexyl)-N2-phenylglycinamide] | > 7.30 |
| Cc1cccc(NCC(=O)N[C@H]2CC[C@@H](Nc3nc(N(C)C)c4ccccc4n3)CC2)c1 [Example 1086, N-(cis-4-{[4-(dimethylamino)quinazolin-2-yl]amino}cyclohexyl)-N2-(3-methylphenyl)glycinamide] | > 7.30 |
| CN(C)c1nc(N[C@H]2CC[C@@H](NC(=O)CNc3cccc(F)c3)CC2)nc2ccccc12 [Example 1087, N-(cis-4-{[4-(dimethylamino)quinazolin-2-yl]amino}cyclohexyl)-N2-(3-fluorophenyl)glycinamide] | > 7.30 |
| CN(C)c1nc(N[C@H]2CC[C@@H](NC(=O)CN(C)c3ccccc3)CC2)nc2ccccc12 [Example 1088, N-(cis-4-{[4-(dimethylamino)quinazolin-2-yl]amino}cyclohexyl)-N2-methyl-N2-phenylglycinamide] | > 7.30 |
| CN(C)c1nc(N[C@H]2CC[C@@H](NC(=O)CNc3ccc(Cl)cc3)CC2)nc2ccccc12 [Example 1089, N2-(4-chlorophenyl)-N-(cis-4-{[4-(dimethylamino)quinazolin-2-yl]amino}cyclohexyl)glycinamide] | > 7.30 |

| SMILES | pIC50 |
| --- | --- |
| COc1cccc(NCC(=O)N[C@H]2CC[C@@H](Nc3nc(N(C)C)c4ccccc4n3)CC2)c1 [Example 1090, N-(cis-4-{[4-(dimethylamino)quinazolin-2-yl]amino}cyclohexyl)-N2-(3-methoxyphenyl)glycinamide] | > 7.30 |
| CN(C)c1nc(N[C@H]2CC[C@@H](NC(=O)CNc3ccc(F)cc3)CC2)nc2ccccc12 [Example 1091, N-(cis-4-{[4-(dimethylamino)quinazolin-2-yl]amino}cyclohexyl)-N2-(4-fluorophenyl)glycinamide] | > 7.30 |
| CN(C)c1nc(N[C@H]2CC[C@@H](CNC(=O)[C@@H](O)c3cccc(Cl)c3)CC2)nc2ccccc12 [Example 1100, (2S)-2-(3-chlorophenyl)-N-[(cis-4-{[4-(dimethylamino)-quinazolin-2-yl]amino}cyclohexyl)methyl]-2-hydroxyacetamide] | 6.70 to 7.30 |
| CN(C)c1nc(N[C@H]2CC[C@@H](CNC(=O)[C@H](O)c3ccccc3Cl)CC2)nc2ccccc12 [Example 1101, (2R)-2-(2-chlorophenyl)-N-[(cis-4-{[4-(dimethylamino)-quinazolin-2-yl]amino}cyclohexyl)methyl]-2-hydroxyacetamide] | 6.70 to 7.30 |
| CN(C)c1nc(N[C@H]2CC[C@@H](CNC(=O)[C@H](O)c3ccccc3)CC2)nc2ccccc12 [Example 1102, (2R)-N-[(cis-4-{[4-(dimethylamino)quinazolin-2-yl]amino}cyclohexyl)methyl]-2-hydroxy-2-phenylacetamide] | < 6.70 |
| CN(C)c1nc(N[C@H]2CC[C@@H](CNC(=O)[C@@H](O)c3ccccc3)CC2)nc2ccccc12 [Example 1103, (2S)-N-[(cis-4-{[4-(dimethylamino)quinazolin-2-yl]amino}cyclohexyl)methyl]-2-hydroxy-2-phenylacetamide] | < 6.70 |
| CN(C)c1nc(N[C@H]2CC[C@@H](NC(=O)[C@H](O)c3cccc(Cl)c3)CC2)nc2ccccc12 [Example 1111, (2R)-2-(3-chlorophenyl)-N-(cis-4-{[4-(dimethylamino)-quinazolin-2-yl]amino}cyclohexyl)-2-hydroxyacetamide] | > 7.30 |
| CN(C)c1nc(N[C@H]2CC[C@@H](NC(=O)[C@@H](O)c3ccccc3Cl)CC2)nc2ccccc12 [Example 1114, (2S)-2-(2-chlorophenyl)-N-(cis-4-{[4-(dimethylamino)quinazolin-2-yl]amino}cyclohexyl)-2-hydroxyacetamide] | > 7.30 |
| COc1cc(OC)cc(C(=O)NC[C@@H]2CC[C@H](Nc3nc(N(C)C)c4ccccc4n3)C2)c1 [Example 1120, N-[((1R,3S)-3-{[4-(dimethylamino)quinazolin-2-yl]amino}cyclopentyl)methyl]-3,5-dimethoxybenzamide] | > 7.30 |
| CN(C)c1nc(N[C@H]2CC[C@@H](CNC(=O)c3ccc(Cl)cc3)C2)nc2ccccc12 [Example 1121, 4-chloro-N-[((1R,3S)-3-{[4-(dimethylamino)quinazolin-2-yl]amino}cyclopentyl)methyl]benzamide] | 6.70 to 7.30 |
| CN(C)c1nc(N[C@H]2CC[C@@H](CNC(=O)c3cccc(Cl)c3)C2)nc2ccccc12 [Example 1122, 3-chloro-N-[((1R,3S)-3-{[4-(dimethylamino)quinazolin-2-yl]amino}cyclopentyl)methyl]benzamide] | > 7.30 |
| CN(C)c1nc(N[C@H]2CC[C@@H](CNC(=O)c3c(Cl)cc(Cl)cc3Cl)C2)nc2ccccc12 [Example 1123, 2,4,6-trichloro-N-[((1R,3S)-3-{[4-(dimethylamino)quinazolin-2-yl]amino}cyclopentyl)methyl]benzamide] | > 7.30 |
| CN(C)c1nc(N[C@H]2CC[C@@H](CNC(=O)c3ccc(C(F)(F)F)c(F)c3)C2)nc2ccccc12 [Example 1124, N-[((1R,3S)-3-{[4-(dimethylamino)quinazolin-2-yl]amino}-cyclopentyl)methyl]-3-fluoro-4-(trifluoromethyl)benzamide] | < 6.70 |
| CN(C)c1nc(N[C@H]2CC[C@@H](CNC(=O)c3ccc(C(F)(F)F)cc3F)C2)nc2ccccc12 [Example 1125, N-[((1R,3S)-3-{[4-(dimethylamino)quinazolin-2-yl]amino}-cyclopentyl)methyl]-2-fluoro-4-(trifluoromethyl)benzamide] | < 6.70 |
| CN(C)c1nc(N[C@H]2CC[C@@H](CNC(=O)c3cc(C(F)(F)F)ccc3C(F)(F)F)C2)nc2ccccc12 [Example 1126, N-[((1R,3S)-3-{[4-(dimethylamino)quinazolin-2-yl]amino}cyclopentyl)methyl]-2,5-bis(trifluoromethyl)benzamide] | < 6.70 |
| CN(C)c1nc(N[C@H]2CC[C@@H](CNC(=O)c3cccc(C(F)(F)F)c3)C2)nc2ccccc12 [Example 1127, N-[((1R,3S)-3-{[4-(dimethylamino)quinazolin-2-yl]amino}cyclopentyl)methyl]-3-(trifluoromethyl)benzamide] | > 7.30 |
| CN(C)c1nc(N[C@H]2CC[C@@H](CNC(=O)c3ccc(OC(F)(F)F)cc3)C2)nc2ccccc12 [Example 1128, N-[((1R,3S)-3-{[4-(dimethylamino)quinazolin-2-yl]amino}cyclopentyl)methyl]-4-(trifluoromethoxy)benzamide] | < 6.70 |
